Source: ChEMBL document CHEMBL5665443, “Enzyme Inhibitor Single Concentration assay results for EUbOPEN Chemogenomics Library” (2024)

What was measured:
Settings in all cases: Compound Concentration 10.0 uM, Hit No
[1] = molecular target: T1, Single-strand selective monofunctional uracil DNA glycosylase (Homo sapiens) (UniProt Q53HV7);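 note: enzymatic SMUG1 assay coupled with APE1, reading fluorescence at 594 nm released when a quenched double-stranded DNA oligonucleotide substrate is cleaved and separated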
T1 sequence (whole entry): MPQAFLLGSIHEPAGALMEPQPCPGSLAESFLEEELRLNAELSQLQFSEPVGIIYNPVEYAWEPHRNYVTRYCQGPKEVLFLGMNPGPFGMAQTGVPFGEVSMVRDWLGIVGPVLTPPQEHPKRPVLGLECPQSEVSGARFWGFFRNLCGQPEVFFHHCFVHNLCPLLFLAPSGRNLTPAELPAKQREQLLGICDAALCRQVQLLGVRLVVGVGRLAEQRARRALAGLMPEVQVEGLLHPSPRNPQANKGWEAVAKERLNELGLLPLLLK
Description: Inhibition of SMUG1 by quantifying inhibition of SMUG1-mediated cleavage and dissociation of quenched duplex DNA oligonucleotides, measured as fluorescence at 594 nm. To generate a functional strand incision and increase turn-over this assay is coupled to APE1.

[2] = molecular target: Uracil-DNA glycosylase (Homo sapiens) (UniProt P13051);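 note: UNG excision on a quenched double-stranded DNA oligo probe, with APE1 added for strand incision and turnover, read as fluorescence at 594 nm as strands separate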
Sequence of Uracil-DNA glycosylase (Homo sapiens) (P13051 whole entry): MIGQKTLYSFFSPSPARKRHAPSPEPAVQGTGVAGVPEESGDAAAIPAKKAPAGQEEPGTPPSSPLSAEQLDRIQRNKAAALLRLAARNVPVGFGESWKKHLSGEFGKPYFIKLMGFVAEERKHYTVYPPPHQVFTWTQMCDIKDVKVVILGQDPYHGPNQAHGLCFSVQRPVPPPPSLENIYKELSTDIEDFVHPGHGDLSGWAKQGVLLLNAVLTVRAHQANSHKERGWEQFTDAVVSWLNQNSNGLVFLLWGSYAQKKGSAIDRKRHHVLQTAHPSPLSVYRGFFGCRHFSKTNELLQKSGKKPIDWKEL
Description: Inhibition of UNG by quantifying inhibition of UNG-mediated cleavage and dissociation of quenched duplex DNA oligonucleotides, measured as fluorescence at 594 nm. To generate a functional strand incision and increase turn-over this assay is coupled to APE1.

[3] = molecular target: T2, Endonuclease III-like protein 1 (Homo sapiens) (UniProt P78549);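 note: enzyme assay tracking NTHL1 cutting and release of a quenched double-stranded DNA oligo substrate, read as fluorescence at 594 nm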
T2 sequence (whole entry): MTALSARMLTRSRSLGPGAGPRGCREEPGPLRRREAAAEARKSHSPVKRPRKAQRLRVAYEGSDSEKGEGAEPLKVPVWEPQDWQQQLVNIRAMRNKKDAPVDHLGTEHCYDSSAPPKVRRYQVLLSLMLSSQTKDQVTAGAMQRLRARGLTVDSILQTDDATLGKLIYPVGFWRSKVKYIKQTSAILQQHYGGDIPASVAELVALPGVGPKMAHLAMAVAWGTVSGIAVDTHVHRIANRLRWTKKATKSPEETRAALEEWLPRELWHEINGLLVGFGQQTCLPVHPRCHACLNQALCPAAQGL
Description: Inhibition of NTHL1 by quantifying inhibition of NTHL1-mediated cleavage and dissociation of quenched duplex DNA oligonucleotides, measured as fluorescence at 594 nm.

[4] = molecular target: Methyl-CpG-binding domain protein 4 (Homo sapiens) (UniProt O95243);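 note: MBD4 activity read as fluorescence at 594 nm from cleavage and release of a quenched duplex DNA oligonucleotide, with APE1 coupled to incise the strand and raise turnover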
Sequence of Methyl-CpG-binding domain protein 4 (Homo sapiens) (O95243 whole entry, the tested form may be a part): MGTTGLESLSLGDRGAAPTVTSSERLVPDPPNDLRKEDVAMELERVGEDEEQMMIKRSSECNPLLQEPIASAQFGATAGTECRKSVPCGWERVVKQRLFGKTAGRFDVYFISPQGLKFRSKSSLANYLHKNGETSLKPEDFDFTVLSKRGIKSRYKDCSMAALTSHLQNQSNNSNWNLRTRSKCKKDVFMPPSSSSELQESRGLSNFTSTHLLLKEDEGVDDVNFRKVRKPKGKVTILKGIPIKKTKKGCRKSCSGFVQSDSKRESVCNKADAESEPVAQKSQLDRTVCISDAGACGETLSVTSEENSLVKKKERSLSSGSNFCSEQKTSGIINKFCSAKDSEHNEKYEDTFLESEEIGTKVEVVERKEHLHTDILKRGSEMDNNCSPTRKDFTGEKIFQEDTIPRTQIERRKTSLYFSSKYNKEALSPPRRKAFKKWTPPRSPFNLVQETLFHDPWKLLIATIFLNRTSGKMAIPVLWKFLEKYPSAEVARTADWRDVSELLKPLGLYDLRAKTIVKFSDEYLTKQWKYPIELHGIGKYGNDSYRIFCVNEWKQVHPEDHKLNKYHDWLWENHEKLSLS
Description: Inhibition of MBD4 by quantifying inhibition of MBD4-mediated cleavage and dissociation of quenched duplex DNA oligonucleotides, measured as fluorescence at 594 nm. To generate a functional strand incision and increase turn-over this assay is coupled to APE1.

[5] = molecular target: T3, Endonuclease 8-like 2 (Homo sapiens) (UniProt Q969S2);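 note: fluorescence at 594 nm reports NEIL2 cutting and release of a quenched double-stranded DNA oligo substrate, reduced signal read as inhibition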
T3 sequence (whole entry): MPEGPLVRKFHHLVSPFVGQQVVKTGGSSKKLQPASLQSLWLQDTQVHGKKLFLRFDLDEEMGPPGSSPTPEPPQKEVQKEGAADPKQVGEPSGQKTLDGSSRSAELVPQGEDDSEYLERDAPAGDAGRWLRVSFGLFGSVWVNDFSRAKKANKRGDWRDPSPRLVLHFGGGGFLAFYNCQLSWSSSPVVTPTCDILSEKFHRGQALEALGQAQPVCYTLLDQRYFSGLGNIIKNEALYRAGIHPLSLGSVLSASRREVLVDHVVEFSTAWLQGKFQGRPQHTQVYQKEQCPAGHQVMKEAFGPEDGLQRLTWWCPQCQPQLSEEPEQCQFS
Description: Inhibition of NEIL2 by quantifying inhibition of NEIL2-mediated cleavage and dissociation of quenched duplex DNA oligonucleotides, measured as fluorescence at 594 nm.

[6] = molecular target: N-glycosylase/DNA lyase (Homo sapiens) (UniProt O15527);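 note: OGG1 cleavage of a quenched duplex DNA oligonucleotide, coupled to APE1 for strand incision, read as fluorescence at 594 nm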
Sequence of N-glycosylase/DNA lyase (Homo sapiens) (O15527 whole entry): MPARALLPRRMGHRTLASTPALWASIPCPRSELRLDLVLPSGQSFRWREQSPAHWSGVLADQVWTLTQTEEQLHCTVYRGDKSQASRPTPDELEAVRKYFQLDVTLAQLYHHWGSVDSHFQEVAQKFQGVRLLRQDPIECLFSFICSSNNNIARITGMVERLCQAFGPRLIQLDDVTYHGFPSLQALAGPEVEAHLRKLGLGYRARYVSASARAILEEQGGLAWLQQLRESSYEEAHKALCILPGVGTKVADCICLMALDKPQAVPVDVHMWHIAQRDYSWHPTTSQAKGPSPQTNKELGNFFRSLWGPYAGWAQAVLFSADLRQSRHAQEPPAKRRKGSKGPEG
Description: Inhibition of OGG1 by quantifying inhibition of OGG1-mediated cleavage and dissociation of quenched duplex DNA oligonucleotides, measured as fluorescence at 594 nm. To generate a functional strand incision and increase turn-over this assay is coupled to APE1.

[7] = molecular target: G/T mismatch-specific thymine DNA glycosylase (Homo sapiens) (UniProt Q13569);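 note: human TDG cleavage of quenched duplex DNA oligonucleotides coupled to APE1, strand release read as fluorescence at 594 nm, inhibition of TDG activity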
Sequence of G/T mismatch-specific thymine DNA glycosylase (Homo sapiens) (Q13569 whole entry): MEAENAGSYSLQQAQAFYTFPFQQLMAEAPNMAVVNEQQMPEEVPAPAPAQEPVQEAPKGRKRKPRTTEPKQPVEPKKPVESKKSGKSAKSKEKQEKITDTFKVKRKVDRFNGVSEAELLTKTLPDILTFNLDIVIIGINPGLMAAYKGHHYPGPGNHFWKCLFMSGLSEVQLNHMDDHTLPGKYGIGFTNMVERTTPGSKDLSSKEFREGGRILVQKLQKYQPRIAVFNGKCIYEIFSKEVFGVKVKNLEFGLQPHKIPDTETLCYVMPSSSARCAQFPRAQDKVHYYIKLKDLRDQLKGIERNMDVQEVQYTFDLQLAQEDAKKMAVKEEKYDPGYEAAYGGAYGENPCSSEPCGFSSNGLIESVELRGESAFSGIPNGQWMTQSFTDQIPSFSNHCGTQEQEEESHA
Description: Inhibition of TDG by quantifying inhibition of TDG-mediated cleavage and dissociation of quenched duplex DNA oligonucleotides, measured as fluorescence at 594 nm. To generate a functional strand incision and increase turn-over this assay is coupled to APE1.

[8] = molecular target: Endonuclease 8-like 1 (Homo sapiens) (UniProt Q96FI4);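 note: fluorescence at 594 nm from quenched duplex DNA oligonucleotides released by NEIL1 cleavage and strand separation, reported as reduction of this enzyme activity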
Sequence of Endonuclease 8-like 1 (Homo sapiens) (Q96FI4 whole entry): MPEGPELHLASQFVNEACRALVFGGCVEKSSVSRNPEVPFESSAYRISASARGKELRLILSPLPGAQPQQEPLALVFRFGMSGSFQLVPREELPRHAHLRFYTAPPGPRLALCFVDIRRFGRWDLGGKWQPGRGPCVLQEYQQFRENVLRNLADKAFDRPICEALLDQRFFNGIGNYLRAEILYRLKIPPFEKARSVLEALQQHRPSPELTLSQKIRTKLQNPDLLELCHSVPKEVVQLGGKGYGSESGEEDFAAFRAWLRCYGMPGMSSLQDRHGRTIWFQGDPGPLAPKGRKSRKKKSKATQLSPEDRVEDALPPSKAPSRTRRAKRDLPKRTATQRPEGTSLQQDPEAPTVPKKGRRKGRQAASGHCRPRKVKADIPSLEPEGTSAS
Description: Inhibition of NEIL1 by quantifying inhibition of NEIL1-mediated cleavage and dissociation of quenched duplex DNA oligonucleotides, measured as fluorescence at 594 nm.

[9] = molecular target: DNA-3-methyladenine glycosylase (Homo sapiens) (UniProt P29372);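 note: enzyme assay where MPG cuts a quenched duplex DNA oligonucleotide probe, paired with APE1 for strand incision and turnover, read as fluorescence at 594 nm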
Sequence of DNA-3-methyladenine glycosylase (Homo sapiens) (P29372 whole entry): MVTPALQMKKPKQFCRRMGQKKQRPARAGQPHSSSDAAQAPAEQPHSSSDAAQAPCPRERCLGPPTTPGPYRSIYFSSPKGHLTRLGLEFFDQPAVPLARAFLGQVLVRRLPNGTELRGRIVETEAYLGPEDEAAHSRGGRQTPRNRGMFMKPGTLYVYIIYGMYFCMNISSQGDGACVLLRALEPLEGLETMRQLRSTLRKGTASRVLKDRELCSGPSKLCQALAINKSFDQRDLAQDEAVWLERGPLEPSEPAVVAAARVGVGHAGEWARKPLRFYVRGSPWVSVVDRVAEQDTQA
Description: Inhibition of MPG by quantifying inhibition of MPG-mediated cleavage and dissociation of quenched duplex DNA oligonucleotides, measured as fluorescence at 594 nm. To generate a functional strand incision and increase turn-over this assay is coupled to APE1.

In the case of Cc1nc(C(=O)N2CCC[C@H]2Cc2nnc(-c3ccccc3)o2)c(-c2ccccc2F)s1, the inhibition [1] was -4.93%, the inhibition [2] was -9.58% and the inhibition [3] was 4.86%. For the same compound, the inhibition [4] was -9.49%, the inhibition [5] was -1.23% and the inhibition [6] was -0.535%. The inhibition [7] was 15%, the inhibition [8] was 2.46% and the inhibition [9] was -2.02%.

For Cn1c(=O)n(CCCO)c(=O)c2c1nc(Oc1cccc(OC(F)(F)F)c1)n2Cc1ccc(Cl)cc1, the inhibition [1] was 10.3%, the inhibition [2] was -4.54% and the inhibition [3] was 8.82%. It also gave an inhibition [4] of 26.6%, an inhibition [5] of -7.23% and an inhibition [6] of -1.67%. It also gave an inhibition [7] of 19.9%, an inhibition [8] of -2.66% and an inhibition [9] of 13.8%.

For Cc1cc(C(C)(C)C)c(O)c(C)c1CC1=NCCN1, the inhibition [1] was -3.38%, the inhibition [2] was -7.32% and the inhibition [3] was 1.92%. The inhibition [4] was -7.05%, the inhibition [5] was 19% and the inhibition [6] was -1.82%. It also gave an inhibition [7] of 10.8%, an inhibition [8] of 8.25% and an inhibition [9] of 3.54%.

CC(C)(C)NCC(O)COc1cccc2[nH]c(=O)[nH]c12 (stereo not drawn) showed an inhibition [1] of 12.3%, an inhibition [2] of -8.82% and an inhibition [3] of -6.87%. For the same compound, the inhibition [4] was 12.3%, the inhibition [5] was 10.5% and the inhibition [6] was -2.11%. For the same compound, the inhibition [7] was 5.99%, the inhibition [8] was 3.06% and the inhibition [9] was 4.34%.

Clc1cccc(-n2nnnc2NCc2ccccc2Oc2ccccn2)c1Cl was tested, and the inhibition [1] was 6.2%, the inhibition [2] was -1.01% and the inhibition [3] was 4.7%. For the same compound, the inhibition [4] was 4.1%, the inhibition [5] was -1.88% and the inhibition [6] was -2.45%. The inhibition [7] was 0.87%, the inhibition [8] was 4.75% and the inhibition [9] was 12.9%.

c1nc(CC2CCNCC2)c[nH]1 showed an inhibition [3] of 7.05%, an inhibition [4] of -3.22% and an inhibition [5] of -0.983%. It also gave an inhibition [6] of -4.12%, an inhibition [7] of 10.2% and an inhibition [8] of 7.21%. The inhibition [9] was -7.11%.

Compound CC1(C)CC(CN2CCC(F)(CNC(=O)c3cc(Cl)cc(Cl)c3)CC2)CCO1 (stereo not drawn) has an inhibition [1] of 8.24%, an inhibition [2] of -1.24% and an inhibition [3] of -3.56%. For the same compound, the inhibition [4] was 12.4%, the inhibition [5] was 6.78% and the inhibition [7] was 12.8%. The inhibition [8] was 6.23% and the inhibition [9] was 9.94%.

Compound COC(=O)C1=C(C)NC(C)=C(C(=O)OC(C)C)C1c1cccc2nonc12 (stereo not drawn) has an inhibition [1] of 0.608%, an inhibition [2] of -3.24% and an inhibition [3] of 15.4%. The inhibition [4] was 3.95%, the inhibition [5] was -0.86% and the inhibition [6] was -6.65%. The inhibition [7] was 5.72%, the inhibition [8] was 1.94% and the inhibition [9] was -0.967%.

Work on CCN(CC)CCCCC1CCN(CC(=O)N2c3ccccc3C(=O)Nc3cccnc32)CC1 yielded an inhibition [1] of 1.37%, an inhibition [3] of 12.2% and an inhibition [4] of -4.84%. The inhibition [5] was 12.7%, the inhibition [6] was -2.09% and the inhibition [7] was 10.1%. For the same compound, the inhibition [8] was -7.47% and the inhibition [9] was -8.23%.

Work on OC(CN1CCC(Cc2ccc(F)cc2)CC1)c1ccc(Cl)cc1 (stereo not drawn) yielded an inhibition [1] of -3.86%, an inhibition [2] of -7.04% and an inhibition [3] of 8.82%. The inhibition [4] was -0.39%, the inhibition [5] was -7.99% and the inhibition [6] was -4.77%. For the same compound, the inhibition [7] was -8.99%, the inhibition [8] was 0.602% and the inhibition [9] was 4.63%.

CCOC(=O)c1ncn2c1CN(C)C(=O)c1cc(F)ccc1-2 was tested, and the inhibition [1] was -0.518%, the inhibition [2] was -9.3% and the inhibition [3] was -6.87%. It also gave an inhibition [4] of -4.21%, an inhibition [5] of -1.48% and an inhibition [6] of 0.398%. It also gave an inhibition [7] of 9.02%, an inhibition [8] of 0.389% and an inhibition [9] of -3.91%.

Cc1cc(-c2nncc3c(C(C)(C)C)c(OCc4ncnn4C)nn23)no1 gave an inhibition [1] of -0.184%, an inhibition [2] of -3.18% and an inhibition [3] of 1.39%. For the same compound, the inhibition [4] was -4.07%, the inhibition [5] was -4.17% and the inhibition [7] was -4.49%. The inhibition [8] was -1.32% and the inhibition [9] was -9.01%.

For O=C(NCc1cccnc1OCC(F)(F)F)c1cncc(-c2ccc(Cl)cc2)c1, the inhibition [1] was -3.23%, the inhibition [2] was -5.85% and the inhibition [3] was 0.568%. It also gave an inhibition [4] of -9.96%, an inhibition [5] of -0.35% and an inhibition [7] of 3.98%. It also gave an inhibition [8] of -4.73% and an inhibition [9] of 2%.

CCOC(=O)C1=C[C@]2(CC)CCCN3CCc4c(n1c1ccccc41)[C@@H]32 gave an inhibition [1] of 1%, an inhibition [2] of -5.08% and an inhibition [3] of 18.7%. It also gave an inhibition [4] of -4.24%, an inhibition [5] of 6.02% and an inhibition [6] of -8.62%. The inhibition [7] was -4.28%, the inhibition [8] was 2.53% and the inhibition [9] was -4.56%.

CCCN1CCO[C@H]2c3cc(O)ccc3OC[C@@H]21 showed an inhibition [3] of 7.05%, an inhibition [4] of -3.57% and an inhibition [5] of -7.97%. The inhibition [6] was -4.1%, the inhibition [7] was -3.98% and the inhibition [8] was 8.1%. For the same compound, the inhibition [9] was 3.27%.

CN1CCC(=C2c3ccccc3CC(=O)c3sccc32)CC1 was tested, and the inhibition [1] was -4.83%, the inhibition [3] was -2.47% and the inhibition [4] was -9.08%. The inhibition [5] was 2.26%, the inhibition [6] was -5.18% and the inhibition [7] was 2.08%. The inhibition [8] was 8.25% and the inhibition [9] was -7.46%.

For O=C(N[C@H]1CN2CCC1CC2)c1ccc(Cl)cc1, the inhibition [1] was 3.71%, the inhibition [2] was -1.13% and the inhibition [3] was 15.4%. It also gave an inhibition [4] of 12.6%, an inhibition [5] of 3.98% and an inhibition [7] of 21.4%. The inhibition [8] was 1.79% and the inhibition [9] was -7.18%.

For Cc1c(C(=O)NN2CCCCC2)nn(-c2ccc(Cl)cc2Cl)c1-c1ccc(Cl)cc1, the inhibition [1] was 11.7%, the inhibition [2] was 1.35% and the inhibition [3] was -0.275%. The inhibition [4] was 16.2%, the inhibition [5] was 0.764% and the inhibition [6] was 9%. For the same compound, the inhibition [7] was 19.2%, the inhibition [8] was -1.09% and the inhibition [9] was 15.3%.

NC(CCP(=O)(O)O)C(=O)O (racemic) was tested, and the inhibition [1] was 10.5%, the inhibition [2] was -6.54% and the inhibition [3] was 2.66%. For the same compound, the inhibition [4] was 6.95%, the inhibition [5] was -9.22% and the inhibition [6] was -1.26%. For the same compound, the inhibition [7] was 24.4%, the inhibition [8] was 0.0927% and the inhibition [9] was -3.6%.

COc1ccc(Cl)cc1[C@]1(F)C(=O)Nc2cc(C(F)(F)F)ccc21 was tested, and the inhibition [1] was 8.52%, the inhibition [2] was -2.84% and the inhibition [3] was 6.35%. For the same compound, the inhibition [4] was -4.08%, the inhibition [5] was 17% and the inhibition [6] was 4.52%. For the same compound, the inhibition [7] was -9.73%, the inhibition [8] was 3.12% and the inhibition [9] was -5.04%.

Compound CCOC(=O)c1cnn(-c2ccc(NC(=O)C(Cl)=C(Cl)Cl)cc2)c1C(F)(F)F has an inhibition [1] of 15%, an inhibition [2] of 2.51% and an inhibition [3] of 8%. The inhibition [4] was 1.57%, the inhibition [5] was 2.71% and the inhibition [6] was -2.43%. For the same compound, the inhibition [7] was 5.37%, the inhibition [8] was -3.99% and the inhibition [9] was 17.3%.

For CCCCN(CC)c1nc(C)nc2c1c(C)cn2-c1c(C)cc(C)cc1C, the inhibition [1] was -0.0333%, the inhibition [2] was -4.91% and the inhibition [3] was 19.5%. It also gave an inhibition [4] of -9.26%, an inhibition [5] of 9% and an inhibition [6] of 2.6%. It also gave an inhibition [7] of 13.7%, an inhibition [8] of -1.24% and an inhibition [9] of 6%.

For COc1ccc(-n2nc3c4ccccc4[nH]cc-3c2=O)cc1, the inhibition [1] was -6.96%, the inhibition [2] was -4.77% and the inhibition [3] was -6.86%. It also gave an inhibition [4] of 1.12%, an inhibition [6] of -8.16% and an inhibition [7] of -5.16%. It also gave an inhibition [8] of 0.00926% and an inhibition [9] of -3.24%.

Cc1c(C(=O)NC2CCCCC2)sc2nc3ccc(N)cc3n12 was tested, and the inhibition [1] was 8.2%, the inhibition [3] was 7.79% and the inhibition [4] was 7.24%. It also gave an inhibition [5] of 1.76%, an inhibition [6] of -4.66% and an inhibition [7] of 11.8%. The inhibition [8] was -4.65% and the inhibition [9] was -4.14%.

Work on O=C1NCCc2c(OCCCCN3CCCCC3)cccc21 yielded an inhibition [2] of -4.57%, an inhibition [3] of 23.7% and an inhibition [4] of 2.31%. The inhibition [5] was 3.98%, the inhibition [6] was -7.4% and the inhibition [7] was -4.06%. The inhibition [8] was 5.05% and the inhibition [9] was -7.35%.

With CCOc1ccc(S(=O)(=O)Nc2ccc(Cl)cc2C#Cc2cnc(C(=O)O)cc2OC)c2ncccc12 the inhibition [1] was 5.88%, the inhibition [2] was 7.85% and the inhibition [3] was -3.26%. The inhibition [4] was 60.3%, the inhibition [6] was 7.9% and the inhibition [7] was 51.4%. The inhibition [8] was 7.43% and the inhibition [9] was 14.2%.

Work on Cc1cc(NC(=O)Nc2ccccc2)n(-c2ccccc2)n1 yielded an inhibition [1] of 0.777%, an inhibition [2] of 1.74% and an inhibition [3] of 10.5%. The inhibition [4] was 0.993%, the inhibition [5] was 7.29% and the inhibition [7] was 5.78%. For the same compound, the inhibition [8] was 1.64% and the inhibition [9] was 3.86%.
